Assay [1] has as its system Bacillus anthracis. Description: Antibacterial activity against Bacillus anthracis spores assessed as reduction in membrane potential at 0.01 uM. The format is functional, organism-based.
The subject of assay [2] is Bacillus anthracis. Description: Antibacterial activity against Bacillus anthracis spores assessed as reduction in membrane potential at 0.1 uM. The class given is functional, organism-based.
Assay [3] deals with Bacillus anthracis. In words: Antibacterial activity against Bacillus anthracis spores assessed as reduction in membrane potential at 1 uM. The format is functional, organism-based.
Assay [4] deals with Bacillus anthracis. Description: Antibacterial activity against Bacillus anthracis spores assessed as reduction in membrane potential at 10 uM. The class given is functional, organism-based.
For assay [5], the system named is Bacillus anthracis. In words: Antibacterial activity against Bacillus anthracis spores assessed as loss of membrane integrity at 0.1 uM by flow cytometry relative to control. The format is functional, organism-based. For orientation: In flow cytometry, cells or beads pass a laser one at a time.
Assay [6] relates to Bacillus anthracis. In words: Antibacterial activity against Bacillus anthracis spores assessed as loss of membrane integrity at 1 uM by flow cytometry relative to control. The class given is functional, organism-based.
Assay [7] has as its system Bacillus anthracis. Description: Antibacterial activity against Bacillus anthracis spores assessed as loss of membrane integrity at 10 uM by flow cytometry relative to control. The format is functional, organism-based.
Assay [8] relates to Bacillus anthracis. Description: Antibacterial activity against Bacillus anthracis spores assessed as loss of membrane integrity at 0.01 uM by flow cytometry relative to control. The format is functional, organism-based.
For assay [9], the system named is Bacillus anthracis. In words: Antibacterial activity against Bacillus anthracis spores assessed as inhibition of growth of replicating vegetative bacteria at 1 uM after 5 hrs. The class given is functional, organism-based.
Assay [10] has as its system Bacillus anthracis. In words: Antibacterial activity against Bacillus anthracis assessed as effect on hydration of spore structure-associated loss in refractility after 10 min by spectroscopy. The format is functional.
For assay [11], the system named is Bacillus anthracis. Description: Antibacterial activity against Bacillus anthracis assessed as effect on germination initiation-associated loss in spore heat resistance after 5 mins by spectroscopy. The format is functional.
The test system of assay [12] is Bacillus anthracis. Description: Antibacterial activity against Bacillus anthracis spores assessed as decrease in spore germination initiation at 10 uM preincubated with germination medium measured after 18 hrs. The format is functional, organism-based.
Assay [13] concerns Bacillus anthracis. In words: Antibacterial activity against Bacillus anthracis spores assessed as inhibition of spore germination at 10 uM preincubated for 5 mins with germinating medium measured after 18 hrs. The class given is functional, organism-based.
For assay [14], the system named is Bacillus anthracis. In words: Antibacterial activity against Bacillus anthracis spores assessed as inhibition of growth of replicating vegetative bacteria at 0.1 uM after 50 minutes. The format is functional, organism-based.
In assay [15] the test system is Bacillus anthracis. Description: Antibacterial activity against Bacillus anthracis spores assessed as inhibition of growth of replicating vegetative bacteria at 1 uM. The class given is functional, organism-based.
Assay [16] relates to Bacillus anthracis. Description: Antibacterial activity against Bacillus anthracis spores assessed as inhibition of growth of replicating vegetative bacteria at 10 uM. The class given is functional, organism-based.
The subject of assay [17] is Bacillus anthracis. In words: Antibacterial activity against Bacillus anthracis spores assessed as inhibition of growth of replicating vegetative bacteria at 100 uM. The format is functional, organism-based.
Assay [18] relates to Bacillus anthracis. Description: Antibacterial activity against Bacillus anthracis spores assessed as reduction in membrane potential at 0.1 uM after 5 hrs by flow cytometry. The class given is functional, organism-based.
Assay [19] relates to Bacillus anthracis. In words: Antibacterial activity against Bacillus anthracis spores assessed as reduction in membrane potential at 0.1 uM after 10 hrs by flow cytometry. The class given is functional, organism-based.
Assay [20] relates to Bacillus anthracis. Description: Antibacterial activity against Bacillus anthracis spores assessed as reduction in membrane potential at 1 uM after 5 hrs by flow cytometry. The class given is functional, organism-based.
Assay [21] concerns Bacillus anthracis. Description: Antibacterial activity against Bacillus anthracis spores assessed as reduction in membrane potential at 1 uM after 10 hrs by flow cytometry. The format is functional, organism-based.
Assay [22] concerns Bacillus anthracis. Description: Antibacterial activity against Bacillus anthracis spores assessed as reduction in membrane potential at 10 uM after 5 hrs by flow cytometry. The class given is functional, organism-based.
Assay [23] has as its system Bacillus anthracis. Description: Antibacterial activity against Bacillus anthracis spores assessed as reduction in membrane potential at 10 uM after 10 hrs by flow cytometry. The class given is functional, organism-based.
In assay [24] the test system is Bacillus anthracis. Description: Antibacterial activity against Bacillus anthracis spores assessed as reduction in membrane potential at 100 uM after 5 hrs by flow cytometry. The format is functional, organism-based.
Assay [25] relates to Bacillus anthracis. In words: Antibacterial activity against Bacillus anthracis spores assessed as reduction in membrane potential at 100 uM after 10 hrs by flow cytometry. The format is functional, organism-based.
Assay [26] concerns Bacillus anthracis. In words: Antibacterial activity against Bacillus anthracis spores assessed as loss of membrane integrity at 100 uM by flow cytometry relative to control. The class given is functional, organism-based.
The subject of assay [27] is Bacillus anthracis. In words: Antibacterial activity against Bacillus anthracis spores assessed as loss of spore cortex by transmission electron microscopy. The format is functional, organism-based.
In assay [28] the test system is Bacillus anthracis. In words: Antibacterial activity against Bacillus anthracis spores assessed as loss of spore coat by transmission electron microscopy. The format is functional, organism-based.
The subject of assay [29] is Bacillus anthracis. Description: Antibacterial activity against Bacillus anthracis spores assessed as loss of exosporium by transmission electron microscopy. The format is functional, organism-based.
Assay [30] has as its system Bacillus anthracis. Description: Antibacterial activity against Bacillus anthracis assessed as effect on spore germination initiation after 5 mins by spectroscopy in presence of 0.1 M MOPS nongerminating condition. The class given is functional, organism-based.

Results on two compounds are retold here after ChEMBL document CHEMBL1629561, “Inhibition of Bacillus anthracis spore outgrowth by nisin” (Antimicrob Agents Chemother, 2008).

Calls of active or inactive are those of the source. The rule behind the calls is not given here.

For `O=C(O)c1cn(C2CC2)c2cc(N3CCNCC3)c(F)cc2c1=O`, the outcome in the assay with Bacillus anthracis [1], in the assay on Bacillus anthracis [2], in the assay on Bacillus anthracis [3] and with Bacillus anthracis [4] was inactive. In addition, the result in the assay on Bacillus anthracis [5], in the assay with Bacillus anthracis [6], in the assay with Bacillus anthracis [7] and with Bacillus anthracis [8] was Active. Also, the inhibition entry with Bacillus anthracis [9] is “inactive”.

Consider `C=C(NC(=O)[C@@H](NC(=O)[C@H](Cc1cnc[nH]1)NC(=O)[C@@H](NC(=O)[C@H](CO)NC(=O)[C@@H]1CS[C@@H](C)[C@H]2NC(=O)C(=C)NC(=O)[C@H](NC(=O)[C@H](CCCCN)NC(=O)[C@H](CCSC)NC(=O)[C@H](CC(N)=O)NC(=O)[C@@H]3CS[C@@H](C)[C@@H](NC(=O)[C@H](CCCNN)NC(=O)[C@@H]4CS[C@@H](C)[C@@H](NC(=O)[C@@H]5CSC[C@@H](NC(=O)/C(=C\C)NC(=O)[C@@H](N)[C@@H](C)CC)C(=O)N[C@@H]([C@@H](C)CC)C(=O)NC(=C)C(=O)N[C@@H]([C@@H](C)CC)C(=O)N5)C(=O)N5CCC[C@H]5C(=O)NCC(=O)N4)C(=O)NCC(=O)N[C@@H](C)C(=O)N[C@@H]([C@@H](C)CC)C(=O)N[C@@H](CCSC)C(=O)NCC(=O)N3)[C@H](C)SC[C@H](NC2=O)C(=O)N[C@H](Cc2cnc[nH]2)C(=O)N1)[C@@H](C)CC)C(C)C)C(=O)N[C@@H](CCCCN)C(=O)O` [NISIN], for which the Activity with Bacillus anthracis [10] is given as above 65%; in the assay on Bacillus anthracis [11], above 80%. The inhibition result in the assay with Bacillus anthracis [12] and with Bacillus anthracis [13] was “Active” in each case. Moreover, the “growth inhibition (GI)” value in the assay on Bacillus anthracis [14], in the assay on Bacillus anthracis [15], with Bacillus anthracis [16] and with Bacillus anthracis [17] was “Active” in each case. The inhibition entry in the assay with Bacillus anthracis [18] and in the assay with Bacillus anthracis [19] was “inactive” each time. Further, the outcome in the assay with Bacillus anthracis [20], in the assay with Bacillus anthracis [21], with Bacillus anthracis [22], in the assay with Bacillus anthracis [23], with Bacillus anthracis [24] and with Bacillus anthracis [25] was Active. Further, the result with Bacillus anthracis [5], with Bacillus anthracis [6], in the assay with Bacillus anthracis [7] and in the assay with Bacillus anthracis [26] was Active. For the same compound, the result in the assay with Bacillus anthracis [27], in the assay on Bacillus anthracis [28], in the assay on Bacillus anthracis [29] and in the assay with Bacillus anthracis [30] was inactive.
